Assay results as given in ChEMBL document CHEMBL4819007, “Does targeting Arg98 of FimH lead to high affinity antagonists?” (Eur J Med Chem, 2021).

Experiments:
[1] = target: Type 1 fimbrin D-mannose specific adhesin (Escherichia coli K-12, UniProt P08191); assay: Antagonist activity at recombinant 6His-tagged thrombin cleavage site of FimH Lectin domain expressed in Escherichia coli HM125 assessed as dissociation constant incubated for 24 hrs in presence of FITC-labeled tracer by competitive fluorescence polarization assay
Sequence of Type 1 fimbrin D-mannose specific adhesin (P08191 whole entry, the tested form may be a part): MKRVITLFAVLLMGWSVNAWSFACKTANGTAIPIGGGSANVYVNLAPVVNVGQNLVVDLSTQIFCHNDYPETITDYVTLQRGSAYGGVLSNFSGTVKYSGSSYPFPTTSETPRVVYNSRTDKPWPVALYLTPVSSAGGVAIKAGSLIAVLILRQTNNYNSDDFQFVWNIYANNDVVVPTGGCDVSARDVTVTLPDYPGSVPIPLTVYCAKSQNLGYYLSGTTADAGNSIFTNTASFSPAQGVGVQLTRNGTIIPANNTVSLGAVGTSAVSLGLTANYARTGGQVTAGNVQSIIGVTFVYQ

[2] = Antagonist activity at recombinant 6His-tagged thrombin cleavage site of FimH Lectin domain R98A mutant expressed in Escherichia coli HM125 assessed as dissociation constant measured after 24 hrs by fluorescence polarization assay

Kd [1] | SMILES | Kd [2]
0.0691 µM | CCOC(=O)CCCCCCOc1cccc(-c2cn([C@H]3O[C@H](CO)[C@@H](O)[C@H](O)[C@@H]3O)nn2)c1 | 0.0134 µM
0.171 µM | O=C(O)COc1ccc(-c2cn([C@H]3O[C@H](CO)[C@@H](O)[C@H](O)[C@@H]3O)nn2)cc1 | 0.0146 µM
0.0488 µM | CCOC(=O)CCCCCOc1cccc(-c2cn([C@H]3O[C@H](CO)[C@@H](O)[C@H](O)[C@@H]3O)nn2)c1 | 0.0115 µM
0.0506 µM | CCOC(=O)CCCCOc1ccc(-c2cn([C@H]3O[C@H](CO)[C@@H](O)[C@H](O)[C@@H]3O)nn2)cc1 | 0.0101 µM
0.0378 µM | O=C(O)CCCCCCOc1ccc(-c2cn([C@H]3O[C@H](CO)[C@@H](O)[C@H](O)[C@@H]3O)nn2)cc1 | 0.0076 µM
0.0076 µM | CCOC(=O)CCCCCCOc1ccc(-c2cn([C@H]3O[C@H](CO)[C@@H](O)[C@H](O)[C@@H]3O)nn2)cc1 | 0.0013 µM
0.056 µM | O=C(O)CCCCCOc1cccc(-c2cn([C@H]3O[C@H](CO)[C@@H](O)[C@H](O)[C@@H]3O)nn2)c1 | 0.0173 µM
0.0367 µM | O=C(O)CCCCCOc1ccc(-c2cn([C@H]3O[C@H](CO)[C@@H](O)[C@H](O)[C@@H]3O)nn2)cc1 | 0.0075 µM
0.0485 µM | O=C(O)CCCCOc1ccc(-c2cn([C@H]3O[C@H](CO)[C@@H](O)[C@H](O)[C@@H]3O)nn2)cc1 | 0.0112 µM
0.143 µM | COC(=O)CCCOc1cccc(-c2cn([C@H]3O[C@H](CO)[C@@H](O)[C@H](O)[C@@H]3O)nn2)c1 | 0.016 µM
> 1 µM | O=C(O)CCCCCCCOc1cccc(-c2cn([C@H]3O[C@H](CO)[C@@H](O)[C@H](O)[C@@H]3O)nn2)c1 | 

Further lines, the compound ahead of its results:

SMILES | Kd [1] | Kd [2]
CCCCCCCO[C@H]1O[C@H](CO)[C@@H](O)[C@H](O)[C@@H]1O | 0.0368 µM | 0.0356 µM
OC[C@H]1O[C@H](n2cc(-c3ccccc3)nn2)[C@@H](O)[C@@H](O)[C@@H]1O | 0.336 µM | 0.297 µM
COC(=O)COc1ccc(-c2cn([C@H]3O[C@H](CO)[C@@H](O)[C@H](O)[C@@H]3O)nn2)cc1 | 0.0662 µM | 0.00722 µM
COC(=O)COc1cccc(-c2cn([C@H]3O[C@H](CO)[C@@H](O)[C@H](O)[C@@H]3O)nn2)c1 | 0.175 µM | 0.0223 µM
CCOC(=O)CCCCCCCOc1ccc(-c2cn([C@H]3O[C@H](CO)[C@@H](O)[C@H](O)[C@@H]3O)nn2)cc1 | 0.0428 µM | 0.0088 µM
O=C(O)COc1cccc(-c2cn([C@H]3O[C@H](CO)[C@@H](O)[C@H](O)[C@@H]3O)nn2)c1 | 0.356 µM | 0.029 µM
O=C(O)CCCOc1cccc(-c2cn([C@H]3O[C@H](CO)[C@@H](O)[C@H](O)[C@@H]3O)nn2)c1 | 0.178 µM | 0.0207 µM
O=C(O)CCCOc1ccc(-c2cn([C@H]3O[C@H](CO)[C@@H](O)[C@H](O)[C@@H]3O)nn2)cc1 | 0.0633 µM | 0.00945 µM
CCOC(=O)CCCOc1ccc(-c2cn([C@H]3O[C@H](CO)[C@@H](O)[C@H](O)[C@@H]3O)nn2)cc1 | 0.0607 µM | 0.00807 µM
CCOC(=O)CCCCCOc1ccc(-c2cn([C@H]3O[C@H](CO)[C@@H](O)[C@H](O)[C@@H]3O)nn2)cc1 | 0.0326 µM | 0.0066 µM
O=C(O)CCCCCCCOc1ccc(-c2cn([C@H]3O[C@H](CO)[C@@H](O)[C@H](O)[C@@H]3O)nn2)cc1 | 0.0447 µM | 0.0101 µM
CCOC(=O)CCCCCCCOc1cccc(-c2cn([C@H]3O[C@H](CO)[C@@H](O)[C@H](O)[C@@H]3O)nn2)c1 | 0.107 µM | 0.025 µM
CCOC(=O)CCCCOc1cccc(-c2cn([C@H]3O[C@H](CO)[C@@H](O)[C@H](O)[C@@H]3O)nn2)c1 | 0.065 µM | 0.0162 µM
O=C(O)CCCCCCOc1cccc(-c2cn([C@H]3O[C@H](CO)[C@@H](O)[C@H](O)[C@@H]3O)nn2)c1 | 0.533 µM | 0.0632 µM
O=C(O)CCCCOc1cccc(-c2cn([C@H]3O[C@H](CO)[C@@H](O)[C@H](O)[C@@H]3O)nn2)c1 | 0.0785 µM | 0.0163 µM
